Results taken from patent US20250171518A1, “METHODS FOR PREPARING CELLS FOR ADOPTIVE T CELL THERAPY” (City of Hope, priority 2015, published 2025).

Test system: CD19 CAR T cells from bulk T cells (PBMC), TCM, naïve/memory T cells
Test: Generation of memory CD19 CAR T cells from different T cell subsets
Assay type: cell-based, human
Source text: FIGS. 6A-6B: Akt inhibition promotes the generation of memory CD19 CAR T cells from different T cell subsets. […] Resultant CD19 CAR T cells were stained with biotinylated Erbitux (cetuximab), followed by streptavidin-PE for CAR detection and antibodies against CD62L. Percentages of CAR+CD62L+ cells are depicted on the basis of the gating of isotype-stained cells. (B) Percentages of CD62L+CD28+ T cells after gating on CAR+CD8+ from six lines of CD19 CAR T cells derived from two different donors are presented.
Resultant CD19CAR T cells were stained with biotinylated Erbitux (cetuximab), followed by streptavidin-PE for CAR detection and antibodies against CD62L. Cells expressing CD62 represent TCM cells or TSCM cells.
Samples from two donors were used to prepare PBMC, TCM, and TN/TCM/TSCM cell populations.

O=c1[nH]c2ccccc2n1C1CCN(Cc2ccc(-c3nc4cc5[nH]cnc5cc4nc3-c3ccccc3)cc2)CC1 [Akt inhibitor VIII, 1,3-dihydro-1-[1-[[4-(6-phenyl-1H-imidazo[4,5-g]quinoxalin-7-yl)phenyl]methyl]-4-piperidinyl]-2H-benzimidazol-2-one]
percentage of CD62L+ expressing CAR T cells (1 μM Akt inhibitor VIII, 17-21 days, bulk T cells, TCM cells or naïve/memory T cells, FIG. 6A): increases the percentage of CD62L+ expressing CAR T cells
number of CD62L+/CD28+/CAR+ T cells (six cell populations from two donors, 17-21 days with or without Akt inhibitor VIII, FIG. 6B): increased the number of CD62L+/CD28+/CAR+ T cells
